Data set [1] addresses T1, von Hippel-Lindau disease tumor suppressor/E3 ubiquitin-protein ligase Mdm2 (Homo sapiens, UniProt Q00987+P40337). Put plainly: Protac activity at VHL/MDM2 in human MDA-MB-231 cells assessed as reduction in MDM2 protein level at 80 uM after 48 hrs by Western blotting analysis. It counts as cell-based. (A western blot detects proteins with antibodies after separation by electrophoresis.)
Target sequence in this assay (P40337 whole entry, looked up): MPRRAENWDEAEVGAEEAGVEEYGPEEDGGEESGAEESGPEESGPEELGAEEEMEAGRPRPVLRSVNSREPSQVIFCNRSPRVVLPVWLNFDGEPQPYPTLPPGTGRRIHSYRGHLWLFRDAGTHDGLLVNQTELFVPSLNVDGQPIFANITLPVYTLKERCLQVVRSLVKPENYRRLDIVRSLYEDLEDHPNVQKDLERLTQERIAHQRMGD
Target sequence in this assay (Q00987 whole entry, looked up): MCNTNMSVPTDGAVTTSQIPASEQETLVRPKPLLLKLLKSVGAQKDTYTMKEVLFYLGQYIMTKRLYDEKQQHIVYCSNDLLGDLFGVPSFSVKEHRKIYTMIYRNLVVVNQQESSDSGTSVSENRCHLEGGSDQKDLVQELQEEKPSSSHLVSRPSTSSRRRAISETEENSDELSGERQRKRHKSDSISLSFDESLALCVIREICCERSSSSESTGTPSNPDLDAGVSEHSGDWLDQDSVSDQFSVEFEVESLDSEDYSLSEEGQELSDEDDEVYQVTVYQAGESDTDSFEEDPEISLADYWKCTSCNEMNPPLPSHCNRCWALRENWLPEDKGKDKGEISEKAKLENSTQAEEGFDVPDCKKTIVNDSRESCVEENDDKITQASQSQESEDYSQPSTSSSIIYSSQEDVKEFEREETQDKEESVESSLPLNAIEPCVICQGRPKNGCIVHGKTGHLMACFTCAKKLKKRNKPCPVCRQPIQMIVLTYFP

In another data set the test system is HepG2. As to the kind of experiment: Antiproliferative activity against human HepG2 cells assessed as cell viability at 100 uM incubated for 48 to 72 hrs by MTT assay. It counts as functional. Particulars: time 48-72 hrs, read-out: Activity. A general note: Tetrazolium dyes change colour on reduction, which living cells bring about.
The subject of another data set is MCF7. Put plainly: Antiproliferative activity against human MCF7 cells assessed as cell viability at 100 uM incubated for 48 to 72 hrs by MTT assay. Conditions: time 48-72 hrs, read-out: Activity. Type of data set: functional.
Data set [2] deals with T1, von Hippel-Lindau disease tumor suppressor/E3 ubiquitin-protein ligase Mdm2. Put plainly: Protac activity at VHL/MDM2 in human MCF7 cells assessed as reduction in MDM2 protein level at 100 uM after 48 hrs by Western blotting analysis. It counts as cell-based.
Target sequence in this assay (P40337 whole entry, looked up): as the sequence (P40337 whole entry, looked up) above
Target sequence in this assay (Q00987 whole entry, looked up): as the sequence (Q00987 whole entry, looked up) above
In the next data set the test system is SJSA-1. Put plainly: Antiproliferative activity against human SJSA-1 cells assessed as cell viability at 100 uM incubated for 48 to 72 hrs by MTT assay. Particulars: time 48-72 hrs, read-out: Activity. Type of data set: functional.
The next data set relates to MDA-MB-231. Put plainly: Antiproliferative activity against human MDA-MB-231 cells assessed as cell viability at 100 uM incubated for 48 to 72 hrs by MTT assay. It counts as functional. Particulars: time 48-72 hrs, read-out: Activity.
For data set [3], the target named is E3 ubiquitin-protein ligase Mdm2 (Homo sapiens, UniProt Q00987). Put plainly: Binding affinity to MDM2 (unknown origin) by SPR assay. In general terms: Surface plasmon resonance follows binding to a sensor surface in real time, without labels.
In data set [4] the target is T1, von Hippel-Lindau disease tumor suppressor/E3 ubiquitin-protein ligase Mdm2. Put plainly: Protac activity at VHL/MDM2 in human MCF7 cells assessed as upregulation of p21 level at 75 to 105 uM after 48 hrs by Western blotting analysis. Type of data set: cell-based. Conditions: dose 75-105 µM.
Target sequence in this assay (P40337 whole entry, looked up): as the sequence (P40337 whole entry, looked up) above
Target sequence in this assay (Q00987 whole entry, looked up): as the sequence (Q00987 whole entry, looked up) above
Data set [5] has the same target. Put plainly: Protac activity at VHL/MDM2 in human MCF7 cells assessed as reduction in MDM2 protein level at 100 uM pretreated with MG-132 for 2 hrs followed by compound addition and measured after 48 hrs by Western blotting analysis. It counts as cell-based.
Target sequence in this assay (P40337 whole entry, looked up): as the sequence (P40337 whole entry, looked up) above
Target sequence in this assay (Q00987 whole entry, looked up): as the sequence (Q00987 whole entry, looked up) above
A short description of data set [6]: Cytotoxicity against mouse HT-22 cells assessed as cell viability at 100 uM incubated for 48 to 72 hrs by MTT assay. Type of data set: toxicity, cell-based. Conditions: time 48-72 hrs, read-out: Activity.
Data set [7] has as its target T1, von Hippel-Lindau disease tumor suppressor/E3 ubiquitin-protein ligase Mdm2. Put plainly: Protac activity at VHL/MDM2 in human MCF7 cells assessed as upregulation of p53 level at 75 to 105 uM after 48 hrs by Western blotting analysis. Particulars: dose 75-105 µM. It counts as cell-based.
Target sequence in this assay (P40337 whole entry, looked up): as the sequence (P40337 whole entry, looked up) above
Target sequence in this assay (Q00987 whole entry, looked up): as the sequence (Q00987 whole entry, looked up) above
Data set [8] has the same target. As to the kind of experiment: Protac activity at VHL/MDM2 in human MCF7 cells assessed as reduction in MDM2 protein level after 48 hrs by Western blotting analysis. Type of data set: cell-based.

The source made the active and inactive calls. No cut-off for these calls is given here.

Chain of E3 ubiquitin-protein ligase Mdm2 (Q00987 whole entry): as the sequence (Q00987 whole entry, looked up) above

For the compound `C[C@H](CC(=O)C[C@@H](C)[C@H]1C[C@H](O)[C@@]2(C)C3=C(C(=O)C[C@]12C)[C@@]1(C)CCC(=O)C(C)(C)[C@@H]1C[C@@H]3O)C(=O)O` [GANODERIC ACID A], the outcome in [1] and in data set [2] was inactive. Moreover, the viability at 100 µM worked out at 87.2% with HepG2, 84.7% with MCF7, 98.9% in the data set on SJSA-1 and 84.8% with MDA-MB-231.

On to `Cc1ncsc1-c1ccc([C@H](C)NC(=O)[C@@H]2C[C@@H](O)CN2C(=O)[C@@H](NC(=O)CCCCc2cn(CCOCCOCCOCCNC(=O)[C@H](C)CC(=O)C[C@@H](C)[C@H]3C[C@H](O)[C@@]4(C)C5=C(C(=O)C[C@]34C)[C@@]3(C)CCC(=O)C(C)(C)[C@@H]3C[C@@H]5O)nn2)C(C)(C)C)cc1`, for which, in data set [3], binding was characterised by a dissociation constant (Kd) of 32.4 µM. Also, the viability at 100 µM in the data set on HepG2 turned out to be 90.2%; in the data set on MCF7, 24.9%; in data set [6] it was 91.8%; in the data set on SJSA-1, 69.6%; with MDA-MB-231, 35.4%. In addition, the outcome in data set [4] and in data set [7] was Active. Besides, in [5], the outcome was inactive. Further, the Activity result in data set [8] is “Dose-Dependent Effect”. Besides, the DC50 in data set [8] worked out at 100 µM.

On to `CC(=O)N[C@H](C(=O)N1C[C@H](O)C[C@H]1C(=O)N[C@@H](C)c1ccc(-c2scnc2C)cc1)C(C)(C)C`, for which the outcome in [1] and in [2] was inactive.

In general, Kd refers to the equilibrium constant for the complex coming apart. A higher Kd goes with a looser complex.
